Data set [1] is described as follows: Color tone of liquid hair dye base first preparation after storage, visually observed by three panelists. It counts as physicochemical. The conditions noted are these: for Color tone: room temperature; for concentration at which a stabilization effect was shown: stored at room temperature for 2 weeks, judged from full-color photographs. As to the method:
40 g of a liquid hair dye base first preparation obtained by adding thioglycerol to a liquid hair dye base (Bigen Speedy Color, manufactured by Hoyu Co. Ltd.) in an amount adjusted as shown in Table 2 was placed in a 100 ml shampoo bottle and, after purging with nitrogen gas was performed, the bottle was capped and stored at room temperature.
Immediately after the passage of a given period of storage time of the shampoo bottle in which the above liquid hair dye base first preparation was placed, the color tone of the liquid hair dye base first preparation was visually observed by three panelists. The color tones in the table show the color tones of the results observed by the largest number of the panelists (the same shall apply hereinafter). Moreover, photographs of change in color tone of the hair dye base first preparation immediately after the passage of the above given period are shown in FIG. 1 to FIG. 3. […]

Data set [2] can be described thus: Stability test: remaining dye in liquid hair dye base first preparation by HPLC. The following applies: finding stated in text. It counts as physicochemical. The procedure: 50 g of a liquid hair dye base (Bigen Speedy Color, manufactured by Hoyu Co. Ltd.) was weighed into a separable flask, and 0.1 g of thioglycerol was added. After the above separable flask was purged with nitrogen gas, the whole was stirred under a flow of nitrogen gas. After the resultant was divided into 40 g each in a 100 ml shampoo bottle and purging with nitrogen gas was performed, the bottle was capped, thereby a liquid hair dye base first preparation being prepared.
The liquid hair dye base first preparation of Example 1 was stored in a constant-temperature tank set at room temperature or 40° C. for 30 days. This first preparation was used as a sample.
About 4 g of an acetonitrile solution containing 500 ppm of benzonitrile was placed in a 10 mL sample vial and then the amount was accurately measured. About 0.2 g of the above sample was added thereto and the amount was accurately measured, followed by thorough mixing. The liquid in the sample vial was sucked by means of a syringe and was placed in a vial under filtration. Then, it was analyzed by means of a column ODS-80A in high performance liquid chromatography (HP 1100 manufactured by Hewlett-Packard Company) to measure amounts of remaining dyes in the sample.
A liquid hair dye base first preparation was prepared by performing the same operations as in Example 1 except that thioglycolic acid was used instead of thioglycerol. […]

The mark [3] stands for this setting: 0.1 ppm (0.00001 %) added, 1 Day.
[4] abbreviates: 0.1 ppm (0.00001 %) added, 2 Weeks.
[5] abbreviates: 0.1 ppm (0.00001 %) added, 4 Days.
Setting [6] is: 1 ppm (0.0001 %) added, 2 Weeks.
[7] abbreviates: 10 ppm (0.001 %) added, 2 Weeks.
Where [8] appears, read: 100 ppm (0.01 %) added, 2 Weeks.
Setting [9] is: 1000 ppm (0.1 %) added, 2 Weeks.

`CC(C)=CCC/C(C)=C/CS` [thiogeraniol, (E)-3,7-dimethyl-2,6-octadien-1-thiol]: the Color tone entry in data set [1] (0.0001 ppm added, 1 Day) is listed as “black”; in data set [1] (0.0001 ppm added, 2 Weeks), “brown”; in data set [1] (0.0001 ppm added, 4 Days), “black”; in data set [1] (0.001 ppm added, 1 Day) it was “black”; in data set [1] (0.001 ppm added, 2 Weeks) it was “brown”; in data set [1] (0.001 ppm added, 4 Days), “black”. Moreover, the Color tone entry in data set [1] (0.01 ppm added, 1 Day) was “black”; in data set [1] (0.01 ppm added, 2 Weeks), “brown”; in data set [1] (0.01 ppm added, 4 Days) it was “black”; in data set [1] (setting [3]), “black”; in data set [1] (setting [4]) it was “brown”; in data set [1] (setting [5]), “black”. Moreover, the Color tone result in data set [1] (1 ppm (0.0001 %) added, 1 Day) is given as “black”; in data set [1] (setting [6]) it was “brown”; in data set [1] (1 ppm (0.0001 %) added, 4 Days), “black”; in data set [1] (10 ppm (0.001 %) added, 1 Day), “black”; in data set [1] (setting [7]), “brown”; in data set [1] (10 ppm (0.001 %) added, 4 Days) it was “black”. Besides, the Color tone result in data set [1] (100 ppm (0.01 %) added, 1 Day) is recorded as “black”; in data set [1] (setting [8]) it was “brown”; in data set [1] (100 ppm (0.01 %) added, 4 Days), “black”; in data set [1] (1000 ppm (0.1 %) added, 1 Day), “brown”; in data set [1] (setting [9]), “brown”; in data set [1] (1000 ppm (0.1 %) added, 4 Days), “black”. For the same compound, the Color tone entry in data set [1] (10000 ppm (1 %) added, 1 Day) is reported as “orange”; in data set [1] (10000 ppm (1 %) added, 2 Weeks) it was “orange”; in data set [1] (10000 ppm (1 %) added, 4 Days) it was “orange”. In addition, the “concentration at which a stabilization effect was shown” value in data set [1] is given as at most 0.0001 ppm.
Turning to `OCCS` [thioglycol, 2-mercaptoethanol], the Color tone entry in data set [1] (0.0001 ppm added, 1 Day) is “black”; in data set [1] (0.0001 ppm added, 2 Weeks), “brown”; in data set [1] (0.0001 ppm added, 4 Days), “black”; in data set [1] (0.001 ppm added, 1 Day), “black”; in data set [1] (0.001 ppm added, 2 Weeks), “brown”; in data set [1] (0.001 ppm added, 4 Days), “black”. Further, the Color tone result in data set [1] (0.01 ppm added, 1 Day) is given as “black”; in data set [1] (0.01 ppm added, 2 Weeks), “brown”; in data set [1] (0.01 ppm added, 4 Days) it was “black”; in data set [1] (setting [3]), “black”; in data set [1] (setting [4]) it was “brown”; in data set [1] (setting [5]), “black”. For the same compound, the Color tone result in data set [1] (1 ppm (0.0001 %) added, 1 Day) is “black”; in data set [1] (setting [6]) it was “brown”; in data set [1] (1 ppm (0.0001 %) added, 4 Days) it was “black”; in data set [1] (10 ppm (0.001 %) added, 1 Day), “black”; in data set [1] (setting [7]) it was “brown”; in data set [1] (10 ppm (0.001 %) added, 4 Days), “black”. Further, the Color tone entry in data set [1] (100 ppm (0.01 %) added, 1 Day) is given as “black”; in data set [1] (setting [8]), “brown”; in data set [1] (100 ppm (0.01 %) added, 4 Days), “black”; in data set [1] (1000 ppm (0.1 %) added, 1 Day), “brown”; in data set [1] (setting [9]) it was “orange”; in data set [1] (1000 ppm (0.1 %) added, 4 Days) it was “orange”. The Color tone entry is listed as “orange” in data set [1] (10000 ppm (1 %) added, 1 Day); “orange” in data set [1] (10000 ppm (1 %) added, 2 Weeks); “orange” in data set [1] (10000 ppm (1 %) added, 4 Days). Besides, the “concentration at which a stabilization effect was shown” value in data set [1] is given as at most 0.0001 ppm.
Turning to `O=C(O)CS` [thioglycolic acid], in data set [2], the “effect on stability of p-nitro-o-phenylenediamine” value is on record as “promotes the deterioration” and the “effect on stability of resorcin” value is given as “promotes the deterioration”.

The record behind these values is patent US7753966B2, “Hair dye stabilizer” (Takasago International Corporation, priority 2006, dated 2010).
